# The supplement of paper PMC11061612
# Assays:
# Assay in all cases: Bliss excess, mean over the matrix (fraction); higher = more synergy
# [1] = system: RERF-LC-Sq1 (Squamous Cell Lung Carcinoma)
# Procedure, shortened: (§1)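 After 24 hours at 37°C and 5% CO2 in 1536-well plates, cells in DMEM/F12 or RPMI plus 10% FBS received two-drug dose matrices for 72 hours. Viability came from CellTiter-Glo 2.0 luminescence and was scaled as inhibition, anchored at 0 by vehicle wells and at 1 by blank wells. Combination Emax is taken as the second-highest inhibition in the matrix, and Bliss excess as the observed combination effect less EA + EB − EA·EB, with EA and EB the single-agent effects.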
# [2] = system: RCM-1 (Colorectal Carcinoma)
# Procedure, shortened: as §1
# [3] = system: RERF-GC-1B (Gastric Carcinoma)
# Procedure, shortened: as §1
# [4] = system: NCI-H2342 (Lung Adenocarcinoma)
# Procedure, shortened: as §1
# [5] = system: TE-8 (Esophageal Squamous Cell Carcinoma)
# Procedure, shortened: as §1
# [6] = system: CAL-62 (Thyroid Gland Carcinoma)
# Procedure, shortened: as §1
SMILES,Bliss excess [1],Bliss excess [2],Bliss excess [3],Bliss excess [4],Bliss excess [5],Bliss excess [6]
"CN(C)CCCOc1ccc(-c2ccc3ncc4c(c3c2)n(C2CCOCC2)c(=O)n4C)cn1 [AZD0156] + C=CCn1c(=O)c2cnc(Nc3ccc(N4CCN(C)CC4)cc3)nc2n1-c1cccc(C(C)(C)O)n1 [AZD1775] (first compound max 1 µM, partner max 1 µM)",0.0224,-0.0621,-0.0318,-0.0612,-0.0104,-0.0006
"CN(C)CCCOc1ccc(-c2ccc3ncc4c(c3c2)n(C2CCOCC2)c(=O)n4C)cn1 [AZD0156] + CCN(CCO)CCCOc1ccc2c(Nc3cc(CC(=O)Nc4cccc(F)c4)[nH]n3)ncnc2c1 [AZD2811] (first compound max 1 µM, 7x7, partner max 1 µM)",0.0325,-0.0241,0.0292,-0.054,-0.0073,0.007
"CN(C)CCCOc1ccc(-c2ccc3ncc4c(c3c2)n(C2CCOCC2)c(=O)n4C)cn1 [AZD0156] + C[C@@H]1COCCN1C2=NC(=NC(=C2)C3(CC3)[S@](=N)(=O)C)C4=C5C=CNC5=NC=C4 [AZD6738] (first compound max 1 µM, 7x7, partner max 10 µM)",0.0544,-0.0343,0.0249,-0.0487,0.0087,-0.0221
"C=CCn1c(=O)c2cnc(Nc3ccc(N4CCN(C)CC4)cc3)nc2n1-c1cccc(C(C)(C)O)n1 [AZD1775] + C[C@@H]1COCCN1C2=NC(=NC(=C2)C3(CC3)[S@](=N)(=O)C)C4=C5C=CNC5=NC=C4 [AZD6738] (first compound max 1 µM, partner max 10 µM)",0.0211,0.0014,0.0634,-0.0687,0.0126,-0.061
"C=CCn1c(=O)c2cnc(Nc3ccc(N4CCN(C)CC4)cc3)nc2n1-c1cccc(C(C)(C)O)n1 [AZD1775] + O=C(c1cc(Cc2n[nH]c(=O)c3ccccc23)ccc1F)N1CCN(C(=O)C2CC2)CC1 [Olaparib] (first compound max 1 µM, partner max 10 µM)",-0.0211,-0.0861,-0.0124,-0.0372,-0.03,0.0017
"CCN(CCO)CCCOc1ccc2c(Nc3cc(CC(=O)Nc4cccc(F)c4)[nH]n3)ncnc2c1 [AZD2811] + C=CCn1c(=O)c2cnc(Nc3ccc(N4CCN(C)CC4)cc3)nc2n1-c1cccc(C(C)(C)O)n1 [AZD1775] (first compound max 1 µM, partner max 1 µM)",-0.0102,0.0398,0.0335,-0.0052,-0.016,0.0127
"CCN(CCO)CCCOc1ccc2c(Nc3cc(CC(=O)Nc4cccc(F)c4)[nH]n3)ncnc2c1 [AZD2811] + C[C@@H]1COCCN1C2=NC(=NC(=C2)C3(CC3)[S@](=N)(=O)C)C4=C5C=CNC5=NC=C4 [AZD6738] (first compound max 1 µM, 7x7, partner max 10 µM)",-0.0169,-0.0263,0.0143,-0.0706,-0.0484,-0.0568
"CCN(CCO)CCCOc1ccc2c(Nc3cc(CC(=O)Nc4cccc(F)c4)[nH]n3)ncnc2c1 [AZD2811] + O=C(c1cc(Cc2n[nH]c(=O)c3ccccc23)ccc1F)N1CCN(C(=O)C2CC2)CC1 [Olaparib] (first compound max 1 µM, 7x7, partner max 10 µM)",0.0361,-0.04,-0.0572,-0.02,-0.013,0.0353
"CN(CCO)CC[C@H](CSc1ccccc1)Nc1ccc(S(=O)(=O)NC(=O)c2ccc(N3CCC([C@@H](O)c4ccccc4-c4ccc(Cl)cc4)CC3)cc2)cc1S(=O)(=O)C(F)(F)F [AZD4320] + C1CN(CCC1(C(=O)N[C@@H](CCO)C2=CC=C(C=C2)Cl)N)C3=NC=NC4=C3C=CN4 [Capivasertib] (first compound max 1 µM, 7x7, partner max 3 µM)",-0.0223,-0.0768,0.0036,-0.0259,-0.0074,-0.0463
"CN(CCO)CC[C@H](CSc1ccccc1)Nc1ccc(S(=O)(=O)NC(=O)c2ccc(N3CCC([C@@H](O)c4ccccc4-c4ccc(Cl)cc4)CC3)cc2)cc1S(=O)(=O)C(F)(F)F [AZD4320] + C=CCn1c(=O)c2cnc(Nc3ccc(N4CCN(C)CC4)cc3)nc2n1-c1cccc(C(C)(C)O)n1 [AZD1775] (first compound max 1 µM, partner max 1 µM)",-0.0021,-0.0586,0.0515,0,0.0378,0.0035
"CN(CCO)CC[C@H](CSc1ccccc1)Nc1ccc(S(=O)(=O)NC(=O)c2ccc(N3CCC([C@@H](O)c4ccccc4-c4ccc(Cl)cc4)CC3)cc2)cc1S(=O)(=O)C(F)(F)F [AZD4320] + CCN(CCO)CCCOc1ccc2c(Nc3cc(CC(=O)Nc4cccc(F)c4)[nH]n3)ncnc2c1 [AZD2811] (first compound max 1 µM, 7x7, partner max 1 µM)",0.0012,-0.0207,-0.0034,-0.036,0.0845,0.0354
"CN(CCO)CC[C@H](CSc1ccccc1)Nc1ccc(S(=O)(=O)NC(=O)c2ccc(N3CCC([C@@H](O)c4ccccc4-c4ccc(Cl)cc4)CC3)cc2)cc1S(=O)(=O)C(F)(F)F [AZD4320] + CN(C)CCCOc1ccc(-c2ccc3ncc4c(c3c2)n(C2CCOCC2)c(=O)n4C)cn1 [AZD0156] (first compound max 1 µM, 7x7, partner max 1 µM)",-0.0601,-0.0538,0.0211,-0.0214,-0.0277,-0.005
"CN(CCO)CC[C@H](CSc1ccccc1)Nc1ccc(S(=O)(=O)NC(=O)c2ccc(N3CCC([C@@H](O)c4ccccc4-c4ccc(Cl)cc4)CC3)cc2)cc1S(=O)(=O)C(F)(F)F [AZD4320] + C[C@@H]1COCCN1C2=NC(=NC(=C2)C3(CC3)[S@](=N)(=O)C)C4=C5C=CNC5=NC=C4 [AZD6738] (first compound max 1 µM, 7x7, partner max 10 µM)",-0.0082,-0.0391,0.072,-0.0429,-0.0357,0.0112
"CN(CCO)CC[C@H](CSc1ccccc1)Nc1ccc(S(=O)(=O)NC(=O)c2ccc(N3CCC([C@@H](O)c4ccccc4-c4ccc(Cl)cc4)CC3)cc2)cc1S(=O)(=O)C(F)(F)F [AZD4320] + C[C@@H](Nc1cc(F)cc(F)c1)c1cc(C(=O)N(C)C)cc2c(=O)cc(N3CCOCC3)oc12 [AZD8186] (first compound max 1 µM, 7x7, partner max 3 µM)",-0.0169,-0.0416,0.0112,-0.0065,0.008,0.046
"CN(CCO)CC[C@H](CSc1ccccc1)Nc1ccc(S(=O)(=O)NC(=O)c2ccc(N3CCC([C@@H](O)c4ccccc4-c4ccc(Cl)cc4)CC3)cc2)cc1S(=O)(=O)C(F)(F)F [AZD4320] + Cc1cc2ncnn2cc1Nc1ncc2c(n1)n(C1CCOCC1)c(=O)n2C [AZD7648] (first compound max 1 µM, 7x7, partner max 10 µM)",-0.0418,-0.0153,0.0231,-0.0475,-0.0357,-0.0086
"CN(CCO)CC[C@H](CSc1ccccc1)Nc1ccc(S(=O)(=O)NC(=O)c2ccc(N3CCC([C@@H](O)c4ccccc4-c4ccc(Cl)cc4)CC3)cc2)cc1S(=O)(=O)C(F)(F)F [AZD4320] + Cn1cnc2c(F)c(Nc3ccc(Br)cc3Cl)c(C(=O)NOCCO)cc21 [Selumetinib] (first compound max 1 µM, 7x7, partner max 3 µM)",0.0158,0.0333,0.022,–,-0.0628,-0.0051
"COc1nnc2ccc(N3CCC(c4ccc(OCCN5CCN(C)C(=O)[C@H]5C)cc4)CC3)nn12 [AZD5153] + CN(CC[C@H](CSC1=CC=CC=C1)NC2=C(C=C(C=C2)S(=O)(=O)NC(=O)C3=CC=C(C=C3)N4CCC(CC4)[C@H](C5=CC=CC=C5C6=CC=C(C=C6)Cl)O)S(=O)(=O)C(F)(F)F)CCO [AZD4320] (first compound max 1 µM, 7x7, partner max 1 µM)",0.0113,–,0.014,–,–,–
"Cc1c2c(nn1C)CSCc1cc(n(C)n1)CSc1cc(c3ccccc3c1)OCCCc1c(C(=O)O)n(C)c3c-2c(Cl)ccc13 [AZD5991] + C1CN(CCC1(C(=O)N[C@@H](CCO)C2=CC=C(C=C2)Cl)N)C3=NC=NC4=C3C=CN4 [Capivasertib] (first compound max 1 µM, 7x7, partner max 3 µM)",0.0125,0.0005,-0.0124,0.0351,0.0306,–
"Cc1c2c(nn1C)CSCc1cc(n(C)n1)CSc1cc(c3ccccc3c1)OCCCc1c(C(=O)O)n(C)c3c-2c(Cl)ccc13 [AZD5991] + C=CCn1c(=O)c2cnc(Nc3ccc(N4CCN(C)CC4)cc3)nc2n1-c1cccc(C(C)(C)O)n1 [AZD1775] (first compound max 1 µM, partner max 1 µM)",0.0112,-0.0271,0.0041,-0.0144,-0.058,-0.0385
"Cc1c2c(nn1C)CSCc1cc(n(C)n1)CSc1cc(c3ccccc3c1)OCCCc1c(C(=O)O)n(C)c3c-2c(Cl)ccc13 [AZD5991] + C[C@@H]1COCCN1C2=NC(=NC(=C2)C3(CC3)[S@](=N)(=O)C)C4=C5C=CNC5=NC=C4 [AZD6738] (first compound max 1 µM, 7x7, partner max 10 µM)",0.0273,-0.0371,–,0.0291,0.0197,0.0278
"Cc1c2c(nn1C)CSCc1cc(n(C)n1)CSc1cc(c3ccccc3c1)OCCCc1c(C(=O)O)n(C)c3c-2c(Cl)ccc13 [AZD5991] + C[C@@H](Nc1cc(F)cc(F)c1)c1cc(C(=O)N(C)C)cc2c(=O)cc(N3CCOCC3)oc12 [AZD8186] (first compound max 1 µM, 7x7, partner max 3 µM)",-0.0353,-0.0102,-0.0188,-0.0027,-0.013,–
"CCc1c2c(nc3ccc(O)cc13)-c1cc3c(c(=O)n1C2)COC(=O)[C@]3(O)CC [SN-38] + O=C(c1cc(Cc2n[nH]c(=O)c3ccccc23)ccc1F)N1CCN(C(=O)C2CC2)CC1 [Olaparib] (first compound max 0.3 µM, 7x7, partner max 10 µM)",0.0502,-0.0176,–,0.0154,0.0202,0.0139
"C[C@@H](c1ccc2nccn2c1)n1nnc2ncc(-c3cnn(C)c3)nc21 [Savolitinib] + CN(CC[C@H](CSC1=CC=CC=C1)NC2=C(C=C(C=C2)S(=O)(=O)NC(=O)C3=CC=C(C=C3)N4CCC(CC4)[C@H](C5=CC=CC=C5C6=CC=C(C=C6)Cl)O)S(=O)(=O)C(F)(F)F)CCO [AZD4320] (first compound max 1 µM, 7x7, partner max 1 µM)",-0.0075,–,-0.0404,–,–,–
